In US10450288B2, “Hydroxy formamide derivatives and their use” (GLAXOSMITHKLINE INTELLECTUAL PROPERTY (NO.2) LIMITED, priority 2014, dated 2019):
Where a name gives a salt, the structure may show the parent alone. Read-outs that look alike come from different tables or passages of the source.

Tested on: human cardiac fibroblasts
Assay: Cell-based inhibition assay of generation of procollagen I C-terminal propeptide (PICP), PICP ELISA
Conditions: Cardiac fibroblast, read-out: pIC50, PICP cellular inhibition assay (converted)
Method: Cell-Based Inhibition Assay of Generation of Procollagen I C-Terminal Propeptide (PICP) and Mature Collagen:
An adaptation of the collagen deposition assay described by Chen, C. Z. C., et al., British Journal of Pharmacology, 2009, 158, 1196-1209 was used to examine effect of compounds on procollagen I processing and collagen deposition. In the adapted assay, human cardiac fibroblasts were utilized. Processing of procollagen I was determined by a PICP ELISA assay and deposition of mature collagen was determined by immunostaining.
Human cardiac fibroblasts were cultured and maintained until passage 6 in FGM-3 media (Lonza, #CC-3132) in a 37° C. humidified incubator with 5% CO2. They were then seeded in 96-well black wall, clear bottom plates at 10,000 to 15,000 cells per well in eagle's minimum essential media (EMEM, ATCC #30-2003) containing 10% fetal bovine serum (FBS, Life Technologies #10082147), 1% Glutamax (Life Technologies #35050061) and 1% Penicillin and Streptomycin (Life Technologies #15070063). These cultures were placed in 37° C. incubator. The next day, media were removed by aspiration and cells were rinsed with phosphate buffered saline. Crowding media (also called ficoll media) was prepared by adding 112.5 mg/ml of ficoll70 and 75 mg/ml ficoll400 (GE healthcare #17-0310-10 and 17-0300-10, respectively), 100 μM ascorbic acid, 1% Glutamax and 1% Penicillin and Streptomycin to EMEM media. Test compounds (dissolved in DMSO) were diluted into crowding media and then added to the cells. Final concentration of DMSO in crowding media was less than 0.3%. Cells were treated for 24 to 48 hr in a 37° C. incubator. At the end of the treatment period, cell media were collected. The level of PICP in the media were determined by a PICP ELISA assay (Quidel #8003) following the manufacturer's protocol. Potencies of test compounds were calculated by fitting PICP levels, relative to untreated controls, to log (inhibitor) vs. response equation using Graphpad Prism software 5.0 and expressed as pIC50.

[1] = human cardiac fibroblasts, crowding media, 24 to 48 hr, PICP ELISA of media

SMILES	IC50 [1]	IC50 (Homo sapiens)
CCCCC[C@H](CN(O)C=O)C(=O)NCNC(=O)c1ccc(-c2cccc(C(C)C(=O)O)c2)o1 (stereo partly drawn) [Example 76, 2-(3-(5-((((R)-2-((N-hydroxyformamido)methyl)heptanamido)methyl)carbamoyl)furan-2-yl)phenyl)propanoic acid]	< 3.98 µM	–
CCCCC[C@H](CN(O)C=O)C(=O)NCNC(=O)c1ccc(-c2cccc(SCC)c2)o1 [Example 103, (R)-5-(3-(ethylthio)phenyl)-N-((2-((N-hydroxyformamido)methyl)heptanamido)methyl)furan-2-carboxamide]	< 3.98 µM	–
CCCCC[C@@H](C(=O)NCNC(=O)c1ccc(-c2ccc(F)c(CC(=O)O)c2)o1)[C@@H](CC)N(O)C=O [Example 70, 2-(2-fluoro-5-(5-((((R)-2-((R)-1-(N-hydroxyformamido)propyl)heptanamido)methyl)carbamoyl)furan-2-yl)phenyl)acetic acid]	–	< 3.98 µM
CCOc1cc(-c2ccc(C(=O)NCNC(=O)[C@H](CCc3ccccc3)[C@@H](CC)N(O)C=O)o2)cc(P(=O)(O)O)c1 [Example 140]	< 3.98 µM	–
CCCCC[C@@H](C(=O)NCNC(=O)c1ccc(-c2ccc(CC(=O)O)c(OCC)c2)o1)[C@@H](CC)N(O)C=O [Example 41, 2-(2-ethoxy-4-(5-((((R)-2-((R)-1-(N-hydroxyformamido)propyl)heptanamido)methyl)carbamoyl)furan-2-yl)phenyl)acetic acid]	< 3.98 µM	–
CCCCC[C@H](CN(O)C=O)C(=O)NCNC(=O)c1ccc(-c2cccc(C(=O)O)c2C)o1 [Example 61, (R)-3-(5-(((2-((N-hydroxyformamido)methyl)heptanamido)methyl)carbamoyl)furan-2-yl)-2-methylbenzoic acid]	< 3.98 µM	–
CCCCC[C@@H](C(=O)NCNC(=O)c1ccc(-c2ccc(C(=O)O)c(O)c2)o1)[C@@H](CC)N(O)C=O [Example 146, 2-hydroxy-4-(5-((((R)-2-((R)-1-(N-hydroxyformamido)propyl)heptanamido)methyl)carbamoyl)furan-2-yl)benzoic acid]	< 3.98 µM	–
CCCCC[C@H](CN(O)C=O)C(=O)NCNC(=O)c1ccc(-c2cccc(C(=O)O)c2OC)o1 [Example 55, (R)-3-(5-(((2-((N-hydroxyformamido)methyl)heptanamido)methyl)carbamoyl)furan-2-yl)-2-methoxybenzoic acid]	< 3.98 µM	–
CCCCC[C@@H](C(=O)NCNC(=O)c1ccc(-c2ccc(C(=O)NCP(=O)(O)O)c(C)c2)o1)[C@@H](CC)N(O)C=O [Example 144, ((4-(5-((((R)-2-((R)-1-(N-hydroxyformamido)propyl)heptanamido)methyl)carbamoyl)furan-2-yl)-2-methylbenzamido)methyl)phosphonic acid]	< 3.98 µM	–
CCCCC[C@@H](C(=O)NCNC(=O)c1ccc(-c2ccc(C(=O)O)c(C(=O)O)c2)o1)[C@@H](CC)N(O)C=O [Example 129, 4-(5-((((R)-2-((R)-1-(N-hydroxyformamido)propyl)heptanamido)methyl)carbamoyl)furan-2-yl)phthalic acid]	< 3.98 µM	–
CCCCC[C@@H](C(=O)NCNC(=O)c1ccc(-c2ccc(C(=O)N[C@@H](CCC(=O)O)C(=O)O)c(OCC)c2)o1)[C@@H](CC)N(O)C=O [Example 135, (S)-2-(2-ethoxy-4-(5-((((R)-2-((R)-1-(N-hydroxyformamido)propyl)heptanamido)methyl)carbamoyl)furan-2-yl)benzamido) pentanedioic acid]	< 3.98 µM	–
CCCCC[C@@H](C(=O)NCNC(=O)c1ccc(-c2ccc(C(C)(C)C(=O)O)cc2)o1)[C@@H](CC)N(O)C=O [Example 43, 2-(4-(5-((((R)-2-((R)-1-(N-hydroxyformamido)propyl)heptanamido)methyl)carbamoyl)furan-2-yl)phenyl)-2-methylpropanoic acid]	< 3.98 µM	–
CCCCC[C@H](CN(O)C=O)C(=O)NCNC(=O)c1ccc(-c2cccc(S(=O)(=O)NC)c2)o1 [Example 22, (R)-N-((2-((N-hydroxyformamido)methyl)heptanamido)methyl)-5-(3-(N-methylsulfamoyl)phenyl) furan-2-carboxamide]	< 3.98 µM	–
CCCCC[C@@H](C(=O)NCNC(=O)c1ccc(-c2cc(OCC)cc(C(=O)NCP(=O)(O)O)c2)o1)[C@@H](CC)N(O)C=O [Example 100, ((3-ethoxy-5-(5-((((R)-2-((R)-1-(N-hydroxy-formamido)propyl)heptanamido)methyl)carbamoyl)furan-2-yl)benzamido)methyl) phosphonic acid]	< 3.98 µM	–
CCCCC[C@H](CN(O)C=O)C(=O)NCNC(=O)c1ccc(-c2cc(OC)cc(OC)c2)o1 [Example 52, (R)-5-(3,5-dimethoxyphenyl)-N-((2-((N-hydroxyformamido)methyl)heptanamido)methyl)furan-2-carboxamide]	< 3.98 µM	–
CCCCC[C@@H](C(=O)NCNC(=O)c1ccc(-c2ccc(CC(=O)O)cc2)o1)[C@@H](CC)N(O)C=O [Example 42, 2-(4-(5-((((R)-2-((R)-1-(N-hydroxyformamido)propyl)heptanamido)methyl)carbamoyl)furan-2-yl)phenyl)acetic acid]	< 3.98 µM	–
CCCCC[C@@H](C(=O)NCNC(=O)c1ccc(-c2cc(OCC)cc(C(=O)NCC[N+](C)(C)C)c2)o1)[C@@H](CC)N(O)C=O [Example 65, 2-(3-ethoxy-5-(5-((((R)-2-((R)-1-(N-hydroxyformamido)propyl)heptanamido)methyl)carbamoyl)furan-2-yl)benzamido)-N,N,N-trimethylethanaminium hydroxide]	–	< 3.98 µM
CCCCC[C@@H](C(=O)NCNC(=O)c1ccc(-c2cc(CNCP(=O)(O)O)cc(OCC)c2)o1)[C@@H](CC)N(O)C=O [Example 137, (((3-ethoxy-5-(5-((((R)-2-((R)-1-(N-hydroxyformamido)propyl)heptanamido)methyl)carbamoyl)furan-2-yl)benzyl)amino)methyl)phosphonic acid, trifluoroacetic acid salt]	< 3.98 µM	–
CCCCC[C@H](CN(O)C=O)C(=O)NCNC(=O)c1ccc(-c2cccc(C(=O)O)c2)o1 [Example 89, (R)-3-(5-(((2-((N-hydroxyformamido)methyl)heptanamido)methyl)carbamoyl)furan-2-yl)benzoic acid]	< 3.98 µM	–
CCCCC[C@@H](C(=O)NCNC(=O)c1ccc(-c2ccc(C(=O)NCP(=O)(O)O)cc2)o1)[C@@H](CC)N(O)C=O [Example 143, ((4-(5-((((R)-2-((R)-1-(N-hydroxyformamido)propyl)heptanamido)methyl)carbamoyl)furan-2-yl)benzamido)methyl)phosphonic acid]	< 3.98 µM	–
CCCCC[C@@H](C(=O)NCNC(=O)c1ccc(-c2ccc(C(=O)N[C@@H](CCC(=O)O)C(=O)O)cc2)o1)[C@@H](CC)N(O)C=O [Example 134, (S)-2-(4-(5-((((R)-2-((R)-1-(N-hydroxyformamido)propyl)heptanamido)methyl)carbamoyl)furan-2-yl)benzamido) pentanedioic acid]	< 3.98 µM	–
CCCCC[C@H](CN(O)C=O)C(=O)NCNC(=O)c1ccc(-c2cccc(N(C)C)c2)o1 [Example 27, (R)-5-(3-(dimethylamino)phenyl)-N-((2-((N-hydroxyformamido)methyl)heptanamido)methyl) furan-2-carboxamide]	< 3.98 µM	–
